This is an account of results in paper PMC10056643, “New Bioactive Peptides from the Mediterranean Seagrass Posidonia oceanica (L.) Delile and Their Impact on Antimicrobial Activity and Apoptosis of Human Cancer Cells” (International Journal of Molecular Sciences, 2023).

In one assay the test system is HepG2 cells. The format is cell-based, human. The conditions noted are these: for IC50 (cell viability): 24 h; for Activity on HepG2 cells (in words): HepG2, discussion statement. The procedure:
HepG2 human hepatic cancer cells (taken from laboratory stocks) were routinely grown in high glucose–DMEM medium with the addition of 10% fetal calf serum (Life Technologies, Carlsbad, CA, USA) and antibiotics (100 U/mL penicillin and 100 μg/mL streptomycin; Life Technologies), at 37 °C in a 5% CO2 atmosphere.
For IC50 determination, cells undergoing exponential growth were seeded at a concentration of 5500/well in 96-well plates, allowed to adhere overnight, and then grown in control conditions or exposed to different concentrations of natural and synthetic peptides for 24 h. The number of viable cells was determined through the trypan blue exclusion test. The cell viability ratio in each experimental condition was determined as the ratio between unstained treated cells and controls, and the half maximal inhibitory concentrations (IC50) for peptides #7, #3d, and #7d were evaluated using the CompuSyn software.

The test system of assay [1] is P. aeruginosa ATCC 15442. The format is cell-based, Pseudomonas aeruginosa. From the text:
(§1) Four bacterial strains and one fungal strain were employed in this study: S. aureus ATCC 25923, P. aeruginosa ATCC 15442, E. coli ATCC 25922, E. faecalis ATCC 29212, and C. albicans ATCC 10231. The media used for microbiological assays were Tryptic Soy Broth (TSB, Sigma-Aldrich, Merck-Life Sciences S.r.l., Milan, Italy), Tryptic Soy Agar (TSA), Mueller Hinton II (Sigma-Aldrich, Merck-Life Sciences S.r.l., Milan, Italy), and Sabouraud medium for the yeast strain.
(§2) Polypeptide-enriched extracts derived from green leaves and rhizomes of P. oceanica were lyophilized and resuspended in ultrapure water in order to obtain protein concentrations of 30 μg/mL and 26 μg/mL, respectively. The MIC values of the extracts were assessed through a previously described micro-method based on serial dilution (1:2) of the extracts, using Mueller Hinton II (MH II) and Sabouraud (for C. albicans) media in 96-well microplates and starting from 50% v/v to 1.5% v/v for a final volume equal to 100 μL. A microbial suspension of 10 μL (5 × 10^6 CFU/mL) derived from a bacterial culture grown at 37 °C for 24 h on Tryptic Soy Agar (TSA) in 5 mL of NaCl 0.9%, whose turbidity was similar to the 0.5 McFarland standard, was added to a 96-well plate followed by incubation at 37 °C for 24 h. […] In addition, a positive growth control (broth with bacterial inoculum to compare the growth of the cells with samples) and a sample control (extract solution without bacterial inoculum to verify the absorbance of the samples at various tested concentrations) were also included.
(§3) The same procedure and media were also used to evaluate the antimicrobial activity of synthetic peptides #2, #3, #5, and #7, as well as of their derivatives. In particular, the synthetic peptides and their derivatives were dissolved in ultrapure water with the goal of achieving a stock solution of 5 mg/mL. Work solutions of 250 μg/mL of each synthetic peptides and derivatives were prepared in MH II and Sabouraud, being tested in 96-well microplates after serial dilution (1:2). Each assay was performed in triplicate.

For a further assay, the system named is E. coli ATCC 25922. The format is cell-based, Escherichia coli.
From the text: as §1, §2, §3

The test system of the next assay is E. faecalis ATCC 29212. The format is cell-based, Enterococcus faecalis.
From the text: as §1, §2, §3

For the next assay, the system named is C. albicans ATCC 10231. The format is cell-based, Candida albicans.
From the text: as §1, §2, §3

A further assay concerns S. aureus ATCC 25923. The format is cell-based, Staphylococcus aureus.
From the text: as §1, §2, §3

Assay [2] concerns P. aeruginosa ATCC 15442. The format is cell-based, Pseudomonas aeruginosa. The conditions noted are these: crystal violet. The procedure: Sub-MIC concentrations of natural extracts and synthetic peptides were tested to evaluate their interference with the growth as a sessile community of S. aureus ATCC 25923, P. aeruginosa ATCC 15442 and C. albicans ATCC 10231, as previously reported. Bacterial strains or fungal strains were incubated in test tubes containing TSB or Sabouraud (5 mL) and 2% v/v glucose at 37 °C for 24 h. Then, a 2.5 μL microbial suspension was added to each well, containing 200 μL of TSB or Sabouraud broth with 2% w/v glucose.. Aliquots of sub-MIC concentrations of natural extracts of P. oceanica or of chemically synthesized peptides were directly added to the wells, and the plates were incubated at 37 °C for 24 h. After biofilm formation, the wells were washed twice with sterile NaCl 0.9% and stained with 200 μL of 0.1% v/v crystal violet solution for 30 min at 37 °C [70]. Excess solution was discharged, and the plates were washed twice using tap water. Lastly, each stained well was processed by adding 200 μL of ethanol to solubilize the dye. The OD was read at a wavelength of 600 nm using a microplate reader (Glomax®-Multi Detection System, Promega s.r.l., Milan, Italy). […] The percentage of biofilm inhibition formation was determined through the following formula: % Inhibition = [(OD growth − OD sample)/OD growth control] × 100. […]

Setting [3] is: chemically synthesized peptide, maximum tested concentration 250 μg/mL, Mueller Hinton II, triplicate.

Like-named read-outs stand apart in the source and are kept apart here. Where no end group is shown, it is not given here.

Consider GEFALCSAKT [Peptide #7], for which the “IC50 (cell viability)” value with HepG2 cells came to 0.329 µg/mL.

For the sequence “IVASVGSA [Peptide #5, natural peptide IVASVGSA from rhizome extract, chemically synthesized]”, the “Activity on HepG2 cells (in words)” value in the assay on HepG2 cells is recorded as “inability of peptide #5 to exert any biological role”.

With IVAKVGSA [5d], the MIC in the assay with P. aeruginosa ATCC 15442 [1] (setting [3]) was more than 250 µg/mL; against E. coli ATCC 25922 (setting [3]), more than 250 µg/mL; in the assay on E. faecalis ATCC 29212 (setting [3]), more than 250 µg/mL; against C. albicans ATCC 10231 (chemically synthesized peptide, maximum tested concentration 250 μg/mL, Sabouraud, triplicate) it was more than 250 µg/mL; in the assay on S. aureus ATCC 25923 (setting [3]) it was more than 250 µg/mL. Moreover, the “Percentage of inhibition of biofilm formation” value in the assay with P. aeruginosa ATCC 15442 [2] (maximum tested concentration 200 μg/mL) was determined as 57.2%. Also, the BIC50 in the assay on P. aeruginosa ATCC 15442 [2] (peptide, AAT Bioquest IC50 calculator) is 70.7 µg/mL.

Regarding WVVRLNAPGKK [Peptide #3d], the MIC in the assay with P. aeruginosa ATCC 15442 [1] (ATCC 15442, 24 h) is more than 250 µg/mL; in the assay with E. coli ATCC 25922 (ATCC 25922, 24 h), more than 250 µg/mL; with E. faecalis ATCC 29212 (ATCC 29212, 24 h) it was more than 250 µg/mL; against C. albicans ATCC 10231 (ATCC 10231, 24 h), more than 250 µg/mL; against S. aureus ATCC 25923 (ATCC 25923, 24 h), more than 250 µg/mL. Also, the “IC50 (cell viability)” value in the assay with HepG2 cells came to 0.41 µg/mL.

Consider RKTFWGVL [Peptide #2d], for which the MIC was more than 250 µg/mL in the assay on P. aeruginosa ATCC 15442 [1] (ATCC 15442, 24 h); more than 250 µg/mL in the assay on E. coli ATCC 25922 (ATCC 25922, 24 h); more than 250 µg/mL in the assay with E. faecalis ATCC 29212 (ATCC 29212, 24 h); more than 250 µg/mL with C. albicans ATCC 10231 (ATCC 10231, 24 h); more than 250 µg/mL against S. aureus ATCC 25923 (ATCC 25923, 24 h).

On to GEFALCKATK [Peptide #7d], for which the MIC in the assay on P. aeruginosa ATCC 15442 [1] (ATCC 15442, 24 h) is more than 250 µg/mL; in the assay with E. coli ATCC 25922 (ATCC 25922, 24 h) it was more than 250 µg/mL; in the assay with E. faecalis ATCC 29212 (ATCC 29212, 24 h), more than 250 µg/mL; in the assay on C. albicans ATCC 10231 (ATCC 10231, 24 h), more than 250 µg/mL; in the assay with S. aureus ATCC 25923 (ATCC 25923, 24 h), more than 250 µg/mL. Also, the “IC50 (cell viability)” value with HepG2 cells stood at 0.108 µg/mL.

In the case of “EETFHGVL [Peptide #2, natural peptide EETFHGVL from green leaves extract, chemically synthesized]”, the “Activity on HepG2 cells (in words)” value in the assay with HepG2 cells is “lack of activity”.
